The values below come from patent US20250375454A1, “METHODS FOR TREATING HEPATOCELLULAR CARCINOMA” (THE HONG KONG POLYTECHNIC UNIVERSITY, priority 2024, published 2025).

Structures are written as SMILES.

The test system of data set [1] is Huh7 cells. As to the kind of experiment: MTT cytotoxicity assay, Huh7. It counts as cell-based. To be noted: Huh7; ZAK-I-57 24 h, ZAK-I-64 and ZAK-I-68 48 h. How it is done:
(§1) Huh7 and PLC/PRF/5 (CRL-8024™) cells were purchased from Thermo Fisher Scientific and the ATCC, respectively. MIHA was kindly provided by Dr. J. R. Chowdhury, Albert Einstein College of Medicine, New York. The cell lines were cultured in Dulbecco's modified Eagle medium (DMEM, Gibco, MA, USA) supplemented with 10% fetal bovine serum (FBS, BI, MA, USA) and 1× penicillin-streptomycin solution (Solarbio) at 37° C. in a humid, 5% CO2 atmosphere.
(§2) Huh7 and PLC/PRF/5 cells at a density of 5×10^3 cells/well were cultured in 96-well plates and incubated at 37° C. in 5% CO2. Both cell lines were treated with different concentrations of benzoxazinone derivatives (ZAK-I-57, ZAK-I-64, and ZAK-I-68). Both cell lines were incubated with ZAK-I-57 for 24 h and for 48 h with ZAK-I-64 and ZAK-I-68. MTT (3-[4,5-dimethylthiazol-2-yl]-2,5-diphenyltetrazolium bromide) solution was then added to each well and incubated for 3 h in a CO2 atmosphere at 37° C. Insoluble formazan crystals were dissolved by adding 100 μL of dimethyl sulfoxide (DMSO) to each well, followed by orbital agitation for 10 min. A minimum of three biological replicates were analyzed using a plate reader to determine IC50. The same experiment was performed with MIHA hepatocyte cells to evaluate the selectivity cytotoxicity of ZAK-I-57.

In data set [2] the test system is ERBB2. The data set can be described thus: Western blot of ERBB2 expression in Huh7 cells. In kind it is cell-based. How it is done:
(§3) The Huh7 cells and tumor tissues were lysed on ice using the lysis buffer. Protein concentration was quantified using Bradford assay (Bio-Rad, Hercules, CA, USA). Equivalent amounts of protein (25-50 μg) were loaded onto 10% sodium dodecyl sulfate-polyacrylamide gel electrophoresis (SDS-PAGE) and transferred to polyvinylidene fluoride (PVDF) membranes. Membranes were blocked with 5% non-fat milk in Tris-buffered saline Tween 20 (TBST) for an hour. The blots were incubated with primary antibodies (EGFR (4267S, Cell signaling technology, MA, USA), c-Myc (5605S, Cell signaling technology, MA, USA), Bax (2772S, Cell signaling technology, MA, USA), Bcl-2 (sc-7382, Santa Cruze, TX, USA), ERBB2 (2165S, Cell signaling technology, MA, USA), and α-tubulin (62204, Invitrogen, MA, USA), 1:1000) at 4° C. overnight. Subsequently, the membranes were washed thrice (15 min each) with TBST solution and incubated for 1 h with secondary horseradish peroxidase-conjugated antibodies (NA934 and NA931, Cytiva, MA, USA, 1:5000). Blots were then detected using an ECL kit and photographed using a ChemiDoc Imaging System (Bio-Rad, MA, USA). The bands were quantified using the ImageJ software (NIH, USA). The intensities of the bands for each protein sample were normalized to those of α-tubulin (internal standard protein). Quantitative data are presented as a fold change of untreated control.
(A western blot detects proteins with antibodies after separation by electrophoresis.)

Data set [3] concerns c-Myc. The data set can be described thus: Western blot of c-Myc expression in Huh7 cells. It counts as cell-based. As for the experimental part:
as §3

The test system of data set [4] is PLC/PRF/5 cells. As to the kind of experiment: MTT cytotoxicity assay, PLC/PRF/5. To be noted: PLC/PRF/5; ZAK-I-57 24 h, ZAK-I-64 and ZAK-I-68 48 h. In kind it is cell-based. As for the experimental part:
as §1, §2
(In general: Formazan colour is commonly taken as a measure of viable cells.)

The subject of data set [5] is EGFR. The data set can be described thus: Western blot of EGFR expression in Huh7 cells. In kind it is cell-based. As for the experimental part:
as §3

Data set [6] relates to PLC/PRF/5 tumor-bearing mice. The data set can be described thus: PLC/PRF/5 tumor-bearing mouse model. In kind it is in vivo. Particulars: ZAK-I-57 15 and 30 mg/kg, sorafenib 30 mg/kg. How it is done: (§4) Male BALB/c nude mice (6-8 weeks old) were obtained from the Centralized Animal Facilities at the Hong Kong Polytechnic University. All animals were bred and housed under specific pathogen-free conditions, with access to sterile food and water. Environmental conditions were strictly controlled, with temperature maintained at 23±2° C., relative humidity between 30%-70%, and a 12-hour light/dark cycle. Mice were group-housed in accordance with institutional guidelines for recommended stocking density. The animal experiments were conducted according to institutional guidelines, and the experimental procedures were approved by the PolyU Animal Experimentation Ethics Committee (Ref. No. 19-20/57-ABCT-R-STUDENT).
PLC/PRF/5 cells (5×10^5) were suspended in 100 μL PBS with Matrigel (1:1 ratio) and injected into the right back of nude mice. Small tumors (<70 mm^3) were formed two weeks after cell inoculation. Mice were then randomized into the vehicle control group, ZAK-I-57 treated groups (15 mg/kg and 30 mg/kg), or sorafenib (30 mg/kg) groups. Mice were administered 200 μL of vehicle water and drugs by oral gavage daily for three weeks. Tumor size was measured twice a week, and tumor volumes were calculated using the formula [(length×width×depth)/2 mm^3] while each mouse was weighed. At the end of the experiment, the mice were sacrificed, and the tumors and organs were collected for further experiments.
as §3
(§5) Tumors were fixed in 4% formalin, embedded in paraffin, and sectioned at […] thickness for IHC staining. Ki-67 primary antibody (ab16667, Abcam, MA, USA) and anti-mouse IgG recombinant secondary antibody (7056S, Cell Signaling Technology, MA, USA) were used for IHC staining. Hemotoxin (Invitrogen, MA, USA) was used to stain nuclei. The number of positively stained cells in Ki-67-stained slides was evaluated using ImageJ software (NIH, MD, USA).
(§6) H&E staining was performed on histological sections of organs (heart, spleen, kidney, liver, and lung) to examine the toxicity of ZAK-I-57 in PLC/PRF/5 tumor-bearing and PDTX model mice. Briefly, the histological slides were deparaffinized using 100% xylene (v/v). The slides were then washed several times with ethanol solutions of various concentrations (70-100%, v/v) and immersed in hematoxylin for 5 min, followed by a quick dip in acidic alcohol. Next, the slides were immersed in Scott's tap water for 3 min and in 1% eosin for 30 s. Finally, the slides were dehydrated using ethanol solutions of various concentrations (70%-100%, v/v) and 100% xylene (v/v) and mounted using a mounting medium.

Data set [7] has as its system HCC PDTX mouse model. As to the kind of experiment: HCC patient-derived tumor xenograft (PDTX #1) mouse model. It counts as in vivo, mice. Particulars: ZAK-I-57 15 and 30 mg/kg, sorafenib 30 mg/kg. As for the experimental part:
as §4
The procedure for the establishment of PDTX #1 was previously described. Tumor cells from PDTX #1 was inoculated subcutaneously on the back of nude mice. When the tumors reached approximately 1,000 mm^3, mice with the first generation of xenografts (P1) were sacrificed, and the xenografts were isolated and expanded for the second generation (P2). When P2 xenografts reached an average volume of 70 mm^3, mice were subjected to ZAK-I-57 and sorafenib treatment. The development of PDTX was approved by the Institutional Review Board of the University of Hong Kong/Hospital Authority Hong Kong West Cluster (UW 17-056) and informed consents were obtained from patients.
as §3, §5, §6
A general note: A xenograft is tissue or cells of one species grown in another, often human tumour cells in immunodeficient mice.

Where [8] appears, read: heart, liver, spleen, lung, kidney.

In the case of `Cc1ccccc1-c1nc2cc([N+](=O)[O-])ccc2c(=O)o1` [ZAK-I-64, 2-(2-methylphenyl)-7-nitro-4H-3,1-benzoxazin-4-one], the “cytotoxicity (cell viability)” value in data set [1] and in data set [4] was “concentration-dependent increase in cytotoxicity” throughout. Further, the ERBB2 expression entry in data set [2] (Huh7, 48 h treatment) was “no appreciable effect”; in data set [2] (Huh7, 72 h treatment), “significant downregulation”. Also, the c-Myc expression entry in data set [3] (Huh7, 48 h treatment) is listed as “no appreciable effect”; in data set [3] (Huh7, 72 h treatment) it was “significant downregulation”. The EGFR expression result is recorded as “no appreciable effect” in data set [5] (Huh7, 48 h treatment) and “significant downregulation” in data set [5] (Huh7, 72 h treatment).
Take `O=c1oc(-c2ccc(O)cc2)nc2cc([N+](=O)[O-])ccc12` [ZAK-I-68, 2-(4-hydroxyphenyl)-7-nitro-4H-3,1-benzoxazin-4-one]: the “cytotoxicity (cell viability)” value in data set [1] and in data set [4] was “concentration-dependent increase in cytotoxicity” each time. In addition, the ERBB2 expression entry is recorded as “no appreciable effect” in data set [2] (Huh7, 48 h treatment) and “significant downregulation” in data set [2] (Huh7, 72 h treatment). The c-Myc expression entry in data set [3] (Huh7, 48 h treatment) is “no appreciable effect”; in data set [3] (Huh7, 72 h treatment) it was “significant downregulation”. Moreover, the EGFR expression entry is reported as “no appreciable effect” in data set [5] (Huh7, 48 h treatment) and “significant downregulation” in data set [5] (Huh7, 72 h treatment).
With `CNC(=O)c1cc(Oc2ccc(NC(=O)Nc3ccc(Cl)c(C(F)(F)F)c3)cc2)ccn1` [sorafenib, reference compound], the “tumor cellularity (H&E staining)” value in data set [6] (vs vehicle control) and in data set [7] (vs vehicle control) was “marked reduction in tumor cellularity” throughout. The “gross anatomical examination of vital organs” value in data set [6] (setting [8]) and in data set [7] (setting [8]) was “maintained tissue morphology comparable to the vehicle control” each time. The “histopathology of vital organs (H&E)” value in data set [6] (setting [8]) and in data set [7] (setting [8]) was “absence of significant pathological changes” throughout. The body weight entry in data set [6] (oral gavage daily, 20 days) is “only slight variation”; in data set [7], “Slight variations”.
